A short description of assay [1]: Binding affinity to HIV-1 RRE RNA by fluorescence anisotropy. The arrangement: species or system Human immunodeficiency virus 1.
Another assay addresses Nucleic Acid. Kind of assay: Binding affinity to HIV-1 TAR RNA by FRET assay. It is filed as nucleic-acid assay, Human immunodeficiency virus 1.

This note sets out measurements from ChEMBL document CHEMBL3400060, “Nucleobase modified neamines with a lysine as a linker, their inhibition specificity for TAR-Tat derived from HIV-1” (Bioorg Med Chem, 2015).

By Kd is commonly meant the equilibrium constant for the complex coming apart. A lower Kd goes with a tighter complex.

For `Nc1ncnc2c1ncn2CC(=O)NCCCC[C@H](N)C(=O)NC[C@H]1O[C@H](O[C@H]2[C@H](O)[C@@H](O)[C@H](N)C[C@@H]2N)[C@H](N)[C@@H](O)[C@@H]1O`, the results for the Kd (in assay [1]; on Nucleic Acid) were 570 nM and 740 nM, respectively.

For the molecule `Nc1nc2c(ncn2CC(=O)NCCCC[C@H](N)C(=O)NC[C@H]2O[C@H](O[C@H]3[C@H](O)[C@@H](O)[C@H](N)C[C@@H]3N)[C@H](N)[C@@H](O)[C@@H]2O)c(=O)[nH]1`, the Kd is 530 nM in assay [1] and 240 nM on Nucleic Acid.

`NC[C@H]1O[C@H](O[C@H]2[C@H](O)[C@@H](O)[C@H](N)C[C@@H]2N)[C@H](N)[C@@H](O)[C@@H]1O` [NEAMINE] returned a Kd in assay [1] of 5400 nM.

As for `NCCCC[C@H](N)C(=O)NC[C@H]1O[C@H](O[C@H]2[C@H](O)[C@@H](O)[C@H](N)C[C@@H]2N)[C@H](N)[C@@H](O)[C@@H]1O`, binding in assay [1] was put at a Kd of 5700 nM.

For `Cc1cn(CC(=O)NCCCC[C@H](N)C(=O)NC[C@H]2O[C@H](O[C@H]3[C@H](O)[C@@H](O)[C@H](N)C[C@@H]3N)[C@H](N)[C@@H](O)[C@@H]2O)c(=O)[nH]c1=O`, the Kd in assay [1] came to 570 nM; on Nucleic Acid, 860 nM.

In the case of `Nc1ccn(CC(=O)NCCCC[C@H](N)C(=O)NC[C@H]2O[C@H](O[C@H]3[C@H](O)[C@@H](O)[C@H](N)C[C@@H]3N)[C@H](N)[C@@H](O)[C@@H]2O)c(=O)n1`, the results for the dissociation constant (Kd) (in assay [1]; on Nucleic Acid) were 640 nM and 1400 nM, respectively.
